Laboratory results: PubChem BioAssay AID2060883 (Molecular Pharmacology Branch, DTP, NCI, 2025)

Test system: 843782-103-R-J1-PDC complex spheroid viability
Test: Anticancer human tumor 843782-103-R-J1-PDC patient-derived lung adenocarcinoma cell line growth inhibition [RAS]
Conditions: for IC50: curve of first compound; for viability, T/C: stronger effect = lower value
How it was run: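 Agents were tested in combination matrices in half-log decrements from a top concentration at or near clinical Cmax (10 microM if undetermined). Targets were multi-cell spheroids of tumour lines plus HUVEC and MSC stromal cells.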

[1] = second compound 0.0316 µM, first compound 0.0316 µM
[2] = second compound 0.0316 µM, first compound 0.1 µM
[3] = second compound 0.1 µM, first compound 0.0316 µM
[4] = second compound 0.1 µM, first compound 0.1 µM
[5] = second compound 0.316 µM, first compound 0.0316 µM
[6] = second compound 0.316 µM, first compound 0.1 µM
[7] = second compound 1 µM, first compound 0.0316 µM
[8] = second compound 1 µM, first compound 0.1 µM
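Note: viability read after seven days of compound exposure.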

NC1c2ccccc2OC12CCN(c1cnc3c(N4CCCc5ncccc54)n[nH]c3n1)CC2 (centres undefined) + C#Cc1c(F)ccc2cc(O)cc(-c3ncc4c(N5CC6CCC(C5)N6)nc(OCC56CCCN5CC(F)C6)nc4c3F)c12
IC50 (second compound 0.0316 µM): 1160 nM
IC50 (second compound 0.1 µM): 642 nM
IC50 (second compound 0.316 µM): 231 nM
IC50 (second compound 1 µM): 72.1 nM
IC50 (second compound 3.16 µM): < 31.6 nM
IC50 (second compound 10 µM): < 31.6 nM
viability, T/C [1]: 92.1%
viability, T/C [2]: 81.1%
viability, T/C (second compound 0.0316 µM, first compound 0.316 µM): 60.6%
viability, T/C (second compound 0.0316 µM, first compound 1 µM): 53%
viability, T/C (second compound 0.0316 µM, first compound 3.16 µM): 40.9%
viability, T/C (second compound 0.0316 µM, first compound 10 µM): 25.8%
viability, T/C [3]: 87.8%
viability, T/C [4]: 69.8%
viability, T/C (second compound 0.1 µM, first compound 0.316 µM): 54.9%
viability, T/C (second compound 0.1 µM, first compound 1 µM): 46.2%
viability, T/C (second compound 0.1 µM, first compound 3.16 µM): 37.9%
viability, T/C (second compound 0.1 µM, first compound 10 µM): 22.5%
viability, T/C [5]: 82%
viability, T/C [6]: 61.8%
viability, T/C (second compound 0.316 µM, first compound 0.316 µM): 42.8%
viability, T/C (second compound 0.316 µM, first compound 1 µM): 37.2%
viability, T/C (second compound 0.316 µM, first compound 3.16 µM): 29.4%
viability, T/C (second compound 0.316 µM, first compound 10 µM): 21.2%
viability, T/C [7]: 69%
viability, T/C [8]: 38.5%
viability, T/C (second compound 1 µM, first compound 0.316 µM): 32.9%
viability, T/C (second compound 1 µM, first compound 1 µM): 26.8%
viability, T/C (second compound 1 µM, first compound 3.16 µM): 21.3%
viability, T/C (second compound 1 µM, first compound 10 µM): 14.9%
viability, T/C (second compound 3.16 µM, first compound 0.0316 µM): 43.3%
viability, T/C (second compound 3.16 µM, first compound 0.1 µM): 25.7%
viability, T/C (second compound 3.16 µM, first compound 0.316 µM): 22.9%
viability, T/C (second compound 3.16 µM, first compound 1 µM): 18.8%
viability, T/C (second compound 3.16 µM, first compound 3.16 µM): 21.1%
viability, T/C (second compound 3.16 µM, first compound 10 µM): 15.9%
viability, T/C (second compound 10 µM, first compound 0.0316 µM): 30.3%
viability, T/C (second compound 10 µM, first compound 0.1 µM): 16.4%
viability, T/C (second compound 10 µM, first compound 0.316 µM): 24%
viability, T/C (second compound 10 µM, first compound 1 µM): 19.1%
viability, T/C (second compound 10 µM, first compound 3.16 µM): 17.5%
viability, T/C (second compound 10 µM, first compound 10 µM): 9.27%

CC(C)n1nc(-c2ccc3oc(N)nc3c2)c2c(N)ncnc21 + C=CC(=O)N1CCN(c2nc(OCC3CCCN3C)nc3c(F)c(-c4nc(N)cc(C)c4C(F)(F)F)c(Cl)cc23)C(C)C1
IC50 (second compound 0.00316 µM): 14.2 nM
IC50 (second compound 0.01 µM): 9.03 nM
IC50 (second compound 0.0316 µM): 10.4 nM
IC50 (second compound 0.1 µM): 8.53 nM
IC50 (second compound 0.316 µM): 8.44 nM
IC50 (second compound 1 µM): 9.84 nM
viability, T/C (second compound 0.00316 µM, first compound 0.000316 µM): 93.5%
viability, T/C (second compound 0.00316 µM, first compound 0.001 µM): 72%
viability, T/C (second compound 0.00316 µM, first compound 0.00316 µM): 81.2%
viability, T/C (second compound 0.00316 µM, first compound 0.01 µM): 53.2%
viability, T/C (second compound 0.00316 µM, first compound 0.0316 µM): 36.3%
viability, T/C (second compound 0.00316 µM, first compound 0.1 µM): 21.2%
viability, T/C (second compound 0.01 µM, first compound 0.000316 µM): 86.5%
viability, T/C (second compound 0.01 µM, first compound 0.001 µM): 79.8%
viability, T/C (second compound 0.01 µM, first compound 0.00316 µM): 63.3%
viability, T/C (second compound 0.01 µM, first compound 0.01 µM): 50.2%
viability, T/C (second compound 0.01 µM, first compound 0.0316 µM): 30.8%
viability, T/C (second compound 0.01 µM, first compound 0.1 µM): 18.8%
viability, T/C (second compound 0.0316 µM, first compound 0.000316 µM): 84.4%
viability, T/C (second compound 0.0316 µM, first compound 0.001 µM): 79.2%
viability, T/C (second compound 0.0316 µM, first compound 0.00316 µM): 66.6%
viability, T/C (second compound 0.0316 µM, first compound 0.01 µM): 48.3%
viability, T/C [1]: 36.5%
viability, T/C [2]: 20.9%
viability, T/C (second compound 0.1 µM, first compound 0.000316 µM): 81.6%
viability, T/C (second compound 0.1 µM, first compound 0.001 µM): 73.6%
viability, T/C (second compound 0.1 µM, first compound 0.00316 µM): 66.4%
viability, T/C (second compound 0.1 µM, first compound 0.01 µM): 45.4%
viability, T/C [3]: 33.1%
viability, T/C [4]: 19.9%
viability, T/C (second compound 0.316 µM, first compound 0.000316 µM): 101%
viability, T/C (second compound 0.316 µM, first compound 0.001 µM): 73.5%
viability, T/C (second compound 0.316 µM, first compound 0.00316 µM): 67.3%
viability, T/C (second compound 0.316 µM, first compound 0.01 µM): 51%
viability, T/C [5]: 28.8%
viability, T/C [6]: 19.2%
viability, T/C (second compound 1 µM, first compound 0.000316 µM): 85.3%
viability, T/C (second compound 1 µM, first compound 0.001 µM): 73.9%
viability, T/C (second compound 1 µM, first compound 0.00316 µM): 62.2%
viability, T/C (second compound 1 µM, first compound 0.01 µM): 53.5%
viability, T/C [7]: 31.8%
viability, T/C [8]: 18.7%
